Measurements published in patent US6596871B2, “Polymorphic forms of 6-[4-(1-cyclohexyl-1h-tetraol-5-yl)butoxy]-3,4-dihydro-2(1H)-quinolinone” (priority 2001, dated 2003).

Tests used:
[1] = bioavailability of cilostazol Form A; assay type: in vivo; conditions: Form A as prepared by the procedures of the '479 patent
[2] = aqueous solubility of cilostazol Form A; assay type: physicochemical; conditions: Form A as prepared by the procedures of the '479 patent
[3] = relative solubility inferred from DSC melting behaviour; assay type: physicochemical; conditions: suggested by lower melting point / weaker crystal packing forces in DSC thermogram (FIG. 8)
Description: (§1) Characterization of Form A of cilostazol, Form B of cilostazol, and Form C of cilostazol was further completed using DSC thermograms, shown in FIGS. 3, 4, and 5, respectively, with DSC thermograms for combinations of Form A and Form B; Form B and Form C; and Forms A, B, and C are shown in FIGS. 6, 7, and 8 respectively. DSC data were generated using a Mettler-Toledo DSC 821^e (Columbus, Ohio) with a Julabo FT900 intercooler chiller (Julabo Company; Allentown, Pa.). In general, samples were analyzed in a vented, sealed aluminum pan. Because the endothermic peak may vary depending upon the rate of heating and the calibration and precision of the instrument, with the amount of peak variation dependent upon the heating rate used, all thermograms included herein were run under the same, consistent conditions: heating at 10° C. per minute under a nitrogen purge at 40 mL/minute.
FIG. 8 illustrates a DSC thermogram for the combination of Form A, Form B and Form C having a second heating cycle with a maximum temperature of about 110° C. with a holding time of about 30 minutes. The peaks in the third heating cycle show a Form A to Form B to Form C peak area ratio of approximately 8:2:1, respectively, with the relative amount of Form A, Form B and Form C further variable on the heat of enthalpy of each polymorphic form.

[4] = solid state phase transformation of disturbed/stressed sample on heating by DSC; assay type: physicochemical; conditions: sample disturbed (scratching/stress), heated by DSC from 30° C. to approximately 200° C. at 10° C. per minute
Description: as §1, with “mL/minute. The resultant sample of Example 1A was disturbed with scratching, which caused the cilostazol sample to undergo a solid state phase transformation at approximately 119° C. followed by an endotherm of melt at approximately 160° C. (Form A) during heating by DSC from 30° C. to approximately 200° C. at 10° C. per minute. When the sample is stressed and reheated (as detailed in Example 2A), the sample undergoes a solid state phase transformation at approximately 147° C. followed by an endotherm of melt at about 160° C. […]” for “mL/minute.”

[5] = stability of the polymorphic form; assay type: physicochemical

| Compound | bioavailability [1] | aqueous solubility [2] | solubility relative to Form A [3] | solid state phase transformation temperature (to Form A) [4] | stability of the crystalline form [5] |
| --- | --- | --- | --- | --- | --- |
| O=C1CCc2cc(OCCCCc3nnnn3C3CCCCC3)ccc2N1 [Form A, 6-[4-(1-cyclohexyl-1H-tetrazol-5-yl)butoxy]-3,4-dihydro-2(1H)-quinolinone] | low | low | – | – | – |
| O=C1CCc2cc(OCCCCc3nnnn3C3CCCCC3)ccc2N1 [Form B, 6-[4-(1-cyclohexyl-1H-tetrazol-5-yl)butoxy]-3,4-dihydro-2(1H)-quinolinone] | – | – | more soluble than Form A | approximately 119 °C | stable |
| O=C1CCc2cc(OCCCCc3nnnn3C3CCCCC3)ccc2N1 [Form C, 6-[4-(1-cyclohexyl-1H-tetrazol-5-yl)butoxy]-3,4-dihydro-2(1H)-quinolinone] | – | – | more soluble than Form A | approximately 147 °C | stable |
